According to article PMC7784547 (Bioorganic Chemistry, 2021):

Experiments:
[1] = tested on: A/Puerto Rico/8/34 (H1N1) with the NA-H274Y mutation; type: cell-based, influenza A virus; conditions: read-out: IC50 ± SD, 274
[2] = tested on: influenza A/PR/8/34 (H1N1) virus; type: cell-based

Compound	IC50 [1] [µM]	IC50 after passage of ten generations [2] [µg/mL]
C=Cc1c(C)c2cc3nc(c4c5[nH]c(cc6nc(cc1[nH]2)C(C)=C6CC)c(C)c5C(=O)C4)[C@@H](CCC(=O)O)[C@@H]3C [PPa, pyropheophorbide a, reference compound]	1.05 ± 0.99	
protoporphyrin IX [PPIX]	1.24 ± 0.53	2.18 ± 0.71
